Experimental findings from patent US20020082273A1, “Agents for use in the treatment of alzheimer's disease” (priority 1998, published 2002) are described below.

What all share (type): biochemical
One assay concerns the target Aβ1-42 (Homo sapiens, UniProt P05067). Description: Effect of metal chelators on H2O2 production from Aβ1-42. The conditions noted are these: 1 μM Cu^2+; chelator 200 μM.
The target of assay [1] is T1, Aβ1-40 or Aβ1-42 SDS-resistant polymers (Homo sapiens, UniProt P05067).
T1 construct: purchased W. Keck Laboratory, Yale; host or cells: chemical synthesis
T1 sequence (P05067 672-713, change not shown): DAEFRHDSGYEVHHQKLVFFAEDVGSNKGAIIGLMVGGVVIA
The assay is described as follows: Dissolution of in vitro Cu^2+-induced SDS-resistant Aβ polymers.

Assay [2] is described as follows: Metal reduction assay, Fe^3+ to Fe^2+. The conditions noted are these: 10 μM Fe^3+, PBS pH 7.4, 1 hr 37° C. As for the experimental part:
(§1) The metal reduction assay was performed using a 96-well microtiter plate (Costar) based upon a modification of established protocols (Landers, J. W., et al., Amer. Clin. Path. 29:590 (1958); Landers, J. W., et al., Clinica Chimica Acta 3:329 (1958)). Polypeptides (10 μM) or Vitamin C (100 μM), metal ions (10 μM, Fe(NO3)3 or Cu(NO3)2), and reduced metal ion indicators, bathophenanthrolinedisulfonic acid (BP, for Fe^2+, Sigma, 200 μM) or bathocuproinedisulfonic acid (BC, for Cu^+, Sigma, 200 μM), were coincubated in phosphate buffered saline (PBS), pH 7.4, for 1 hr at 37° C. The metal ion solutions were prepared by direct dilution in the buffer from their aqueous stocks purchased from National Institute of Standards and Technology (NIST). Absorbances were then measured at 536 mn (Fe^2+-BP complex) and 483 nm (Cu^+-BC complex), respectively, using a 96-well plate reader (SPECTRAmax 250, Molecular Devices, CA). In control samples, both metal ion and indicator were present to determine the background buffer signal. As a further control, both metal ion and peptide were present in the absence of indicator to estimate the contribution of light scattering due to turbidity to the absorbance reading at these wavelengths. The net absorbances (ΔA) at 536 nm or 483 nm were obtained by deducting the absorbances from these controls from the absorbances generated by the peptide and metal in the presence of the respective indicator.
The concentrations of reduced metal ions (Fe^2+ or Cu^+) were quantified based on the formula: Fe^2+ or Cu^+ (˜M)=A*10^6/(L*M), where L is the measured equivalent vertical pathlength for a well of 300 μL volume as described in the instrument's specifications manual (0.856 cm for Fe^2+; 1.049 cm for Cu^+); M is the known molecular absorbance (M^−1 cm^−1) which is 7124 (for Fe^2+-BP complex) or 2762 (for Cu^+-BC complex).

The nature of assay [3]: Metal reduction assay, Cu^2+ to Cu^+. On the procedure:
Aβ (10 μM in PBS, pH 7.4 or 6.8, as shown) was incubated for 30 minutes (37° C.) in the presence of Cu^2+10 μM ±Zn^2+ 10 μM). […] levels (n=3, ±SD) were assayed against a standard curve.
as §1, with “Polypeptides” for “The metal reduction assay was performed using a 96-well microtiter plate (Costar) based upon a modification of established protocols (Landers, J. W., et al., Amer. Clin. Path. 29:590 (1958); Landers, J. W., et al., Clinica Chimica Acta 3:329 (1958)). Polypeptides”, “Absorbances were then measured at 536 mn (Fe^2+-BP complex) and 483 nm (Cu^+-BC complex), respectively, using a 96-well plate reader (SPECTRAmax 250, Molecular Devices, CA).” left out

Counter-ions that a name gives are not always drawn.

Sequence of Aβ1-42 (P05067 672-713 limits assumed): as the sequence (P05067 672-713, change not shown) above

Turning to `O=S(=O)(O)c1ccc(-c2ccnc3c2ccc2c(-c4ccc(S(=O)(=O)O)cc4)ccnc23)cc1` [BP, bathophenanthrolinedisulfonic acid], the “effect on H2O2 formation by Aβ1-42” value on Aβ1-42 was “inhibited H2O2 formation”.

Regarding `NC(N)=O` [Urea, urea], the “disruption of SDS-resistant polymers” value is “did not disrupt” in assay [1] (4.5 M) and “only slightly” in assay [1] (9M).

As to `N=C(N)N` [guanidine HCl], the “disruption of SDS-resistant polymers” value in assay [1] (4.5 M) is “did not disrupt”; in assay [1] (9M), “only slightly”.

On to “insulin: histidine-containing peptide that can bind copper and zinc”, for which the “reduction of available Fe^3+” value in assay [2] was “did not significantly facilitate the reduction of Fe^3+”. Also, the “reduction of available Cu^2+” value in assay [3] (10 μM Cu^2+, PBS pH 7.4, 1 hr 37° C.) amounted to 10%. Further, the “Cu^2+ reduction” value in assay [3] (10 μM, PBS, 30 minutes 37° C., Cu^2+ 10 μM) is reported as “no Cu^2+ reduction”.
